Reference: ChEMBL document CHEMBL1143768, “Microwave prompted multigram synthesis, structural determination, and photo-antiproliferative activity of fluorinated 4-hydroxyquinolinones” (Bioorg Med Chem Lett, 2007)
Converted amounts (≈) assume the structure as drawn.

How the values were obtained:
[1] = Photocytotoxicity against human NTCC 2544 cell line irradiated with 2.5 J cm^-2 after 72 hrs by MTT assay; type: cell-based; conditions: NTCC 2544 cells
[2] = Photocytotoxicity against human NTCC 2544 cell line irradiated with 1.25 J cm^-2 after 72 hrs by MTT assay; type: cell-based; conditions: NTCC 2544 cells
LoVo = assay: Photocytotoxicity against human LoVo cell line irradiated with 2.5 J cm^-2 after 72 hrs by MTT assay; type: functional; conditions: light or radiation study
HL-60 [3] = assay: Photocytotoxicity against human HL60 cell line irradiated with 2.5 J cm^-2 after 72 hrs by MTT assay; type: functional; conditions: HL-60, light or radiation study
HL-60 [4] = assay: Photocytotoxicity against human HL60 cell line irradiated with 1.25 J cm^-2 after 72 hrs by MTT assay; type: functional; conditions: HL-60, light or radiation study
[5] = test system: Mycobacterium tuberculosis; assay: Growth inhibition of Mycobacterium tuberculosis at 6.25 ug/ml; type: functional
[6] = test system: Mycobacterium tuberculosis; assay: Antimicrobial activity against Mycobacterium tuberculosis; type: functional
Trichophyton benhamiae = assay: Antifungal activity against Trichophyton mentagrophytes 445(TM) by broth microdilution test; type: functional, Arthroderma benhamiae
HL-60 [7] = assay: Cell cycle arrest in HL60 cell line irradiated with 2.5 J cm^-2 assessed as accumulation at G1 phase at 5.0 […] after 48 hrs; type: functional, Homo sapiens
HL-60 [8] = assay: Cell cycle arrest in HL60 cell line irradiated with 2.5 J cm^-2 assessed as accumulation at G1 phase at 2.5 […] after 48 hrs; type: functional, Homo sapiens
HL-60 [9] = assay: Cell cycle arrest in HL60 cell line irradiated with 2.5 J cm^-2 assessed as accumulation at G1 phase at 5.0 […] after 24hrs; type: functional, Homo sapiens
HL-60 [10] = assay: Cell cycle arrest in HL60 cell line irradiated with 2.5 J cm^-2 assessed as accumulation at G2 phase at 5.0 […] after 24hrs; type: functional, Homo sapiens
HL-60 [11] = assay: Cell cycle arrest in HL60 cell line irradiated with 2.5 J cm^-2 assessed as accumulation at S phase at 2.5 […] after 24 hrs; type: functional, Homo sapiens
HL-60 [12] = assay: Apoptotic activity in HL60 cells irradiated with 2.5 J cm^-2 at 5.0 […] after 72 hrs; type: functional, Homo sapiens
HL-60 [13] = assay: Cell cycle arrest in HL60 cell line irradiated with 2.5 J cm^-2 assessed as accumulation at G1 phase at 2.5 […] after 72 hrs; type: functional, Homo sapiens
HL-60 [14] = assay: Cell cycle arrest in HL60 cell line irradiated with 2.5 J cm^-2 assessed as accumulation at S phase at 5.0 […] after 72 hrs; type: functional, Homo sapiens
HL-60 [15] = assay: Cell cycle arrest in HL60 cell line irradiated with 2.5 J cm^-2 assessed as accumulation at G1 phase at 2.5 […] after 24 hrs; type: functional, Homo sapiens
HL-60 [16] = assay: Cell cycle arrest in HL60 cell line irradiated with 2.5 J cm^-2 assessed as accumulation at G2 phase at 5.0 […] after 72 hrs; type: functional, Homo sapiens
HL-60 [17] = assay: Cell cycle arrest in HL60 cell line irradiated with 2.5 J cm^-2 assessed as accumulation at G2 phase at 2.5 […] after 48 hrs; type: functional, Homo sapiens
HL-60 [18] = assay: Cell cycle arrest in HL60 cell line irradiated with 2.5 J cm^-2 assessed as accumulation at S phase at 2.5 […] after 48 hrs; type: functional, Homo sapiens
HL-60 [19] = assay: Cell cycle arrest in HL60 cell line irradiated with 2.5 J cm^-2 assessed as accumulation at G2 phase at 5.0 […] after 48 hrs; type: functional, Homo sapiens
HL-60 [20] = assay: Cell cycle arrest in HL60 cell line irradiated with 2.5 J cm^-2 assessed as accumulation at G1 phase at 5.0 […] after 72 hrs; type: functional, Homo sapiens
HL-60 [21] = assay: Apoptotic activity in HL60 cells irradiated with 2.5 J cm^-2 at 2.5 […] after 48 hrs; type: functional, Homo sapiens
HL-60 [22] = assay: Cell cycle arrest in HL60 cell line irradiated with 2.5 J cm^-2 assessed as accumulation at S phase at 5.0 […] after 24hrs; type: functional, Homo sapiens
HL-60 [23] = assay: Apoptotic activity in HL60 cells irradiated with 2.5 J cm^-2 at 5.0 […] after 24 hrs; type: functional, Homo sapiens
HL-60 [24] = assay: Cell cycle arrest in HL60 cell line irradiated with 2.5 J cm^-2 assessed as accumulation at S phase at 5.0 […] after 48 hrs; type: functional, Homo sapiens
HL-60 [25] = assay: Apoptotic activity in HL60 cells irradiated with 2.5 J cm^-2 at 2.5 […] after 24 hrs; type: functional, Homo sapiens
HL-60 [26] = assay: Apoptotic activity in HL60 cells irradiated with 2.5 J cm^-2 at 5.0 […] after 48 hrs; type: functional, Homo sapiens
HL-60 [27] = assay: Cell cycle arrest in HL60 cell line irradiated with 2.5 J cm^-2 assessed as accumulation at G2 phase at 2.5 […] after 24 hrs; type: functional, Homo sapiens
HL-60 [28] = assay: Cell cycle arrest in HL60 cell line irradiated with 2.5 J cm^-2 assessed as accumulation at S phase at 2.5 […] after 72 hrs; type: functional, Homo sapiens
HL-60 [29] = assay: Cell cycle arrest in HL60 cell line […] cm^-2 assessed as accumulation at G2 phase at 2.5 […] after 72 hrs; type: functional, Homo sapiens
HL-60 [30] = assay: Apoptotic activity in HL60 cells irradiated with 2.5 J cm^-2 at 2.5 […] after 72 hrs; type: functional, Homo sapiens

O=c1cc(O)c2cccc(C(F)(F)F)c2[nH]1
GI50 at 72 h [1]: 7.8 µM
GI50 at 72 h [2]: > 20 µM
GI50 (LoVo): 10.1 µM
GI50 (HL-60 [3]): 7.3 µM
GI50 (HL-60 [4]): > 10 µM
inhibition at 6.25 µg/mL [5]: 69%

Cc1ccc2c(O)cc(=O)[nH]c2c1
GI50 (HL-60 [3]): 10 µM
GI50 (HL-60 [4]): > 10 µM
inhibition at 6.25 µg/mL [5]: 54%

O=c1cc(O)c2ccc(Cl)cc2[nH]1
inhibition at 6.25 µg/mL [5]: 2%

O=c1cc(O)c2ccc(C(F)(F)F)cc2[nH]1
GI50 at 72 h [1]: 2.5 µM
GI50 at 72 h [2]: 7 µM
GI50 (LoVo): 1.8 µM
Inhibition [6]: 72%
GI50 (HL-60 [4]): 6.2 µM
inhibition at 6.25 µg/mL [5]: 72%

O=c1cc(O)c2cccc(F)c2[nH]1
GI50 (HL-60 [3]): 10 µM
GI50 (HL-60 [4]): > 10 µM
inhibition at 6.25 µg/mL [5]: 50%

OC(Cn1cncn1)(Cn1cncn1)c1ccc(F)cc1F [FLUCONAZOLE]
MIC (Trichophyton benhamiae): 1950 µM (≈ 597 µg/mL)

O=c1cc(O)c2ccccc2[nH]1
inhibition at 6.25 µg/mL [5]: 0%

NC(=O)c1cnccn1 [PYRAZINAMIDE]
inhibition at 6.25 µg/mL [5]: 100%

O=c1cc(O)c2cc(F)ccc2[nH]1
GI50 at 72 h [1]: > 20 µM
Activity (HL-60 [7]): 49.6%
Activity (HL-60 [8]): 44.7%
Activity (HL-60 [9]): 34.6%
GI50 at 72 h [2]: > 20 µM
Activity (HL-60 [10]): 11.1%
Activity (HL-60 [11]): 58.4%
GI50 (LoVo): 12.1 µM
Activity (HL-60 [12]): 46%
Activity (HL-60 [13]): 44.2%
Activity (HL-60 [14]): 37.1%
Activity (HL-60 [15]): 30.8%
Activity (HL-60 [16]): 6.9%
Activity (HL-60 [17]): 10.3%
Activity (HL-60 [18]): 45%
Activity (HL-60 [19]): 11.7%
Activity (HL-60 [20]): 56%
Activity (HL-60 [21]): 27%
Activity (HL-60 [22]): 54.3%
GI50 (HL-60 [3]): 7.8 µM
Activity (HL-60 [23]): 21%
Activity (HL-60 [24]): 38.6%
Activity (HL-60 [25]): 13.2%
GI50 (HL-60 [4]): > 10 µM
Activity (HL-60 [26]): 26%
Activity (HL-60 [27]): 10.8%
inhibition at 6.25 µg/mL [5]: 35%
Activity (HL-60 [28]): 43.8%
Activity (HL-60 [29]): 12%
Activity (HL-60 [30]): 40.5%

O=c1cc(O)c2ccc(F)cc2[nH]1
GI50 (HL-60 [3]): 10 µM
GI50 (HL-60 [4]): > 10 µM
inhibition at 6.25 µg/mL [5]: 52%
